Assay results published in patent EP1191024A1, “Thiadiazines and their use as inhibitors of metalloproteinases” (Tschesche, Harald, priority 2000, dated 2002).
Counter-ions that a name gives are not always drawn. Like-named read-outs stand apart in the source and are kept apart here.

How the values were obtained:
cdMMP-2 = cdMMP-2 (Homo sapiens, UniProt P08253); assay: MMP microfluorometric profiling assay (fluorogenic Mca-peptide substrate); assay type: biochemical; conditions: for percent inhibition: cdMMP-2, @ 15 (µM)
Chain of cdMMP-2 (P08253 110-446): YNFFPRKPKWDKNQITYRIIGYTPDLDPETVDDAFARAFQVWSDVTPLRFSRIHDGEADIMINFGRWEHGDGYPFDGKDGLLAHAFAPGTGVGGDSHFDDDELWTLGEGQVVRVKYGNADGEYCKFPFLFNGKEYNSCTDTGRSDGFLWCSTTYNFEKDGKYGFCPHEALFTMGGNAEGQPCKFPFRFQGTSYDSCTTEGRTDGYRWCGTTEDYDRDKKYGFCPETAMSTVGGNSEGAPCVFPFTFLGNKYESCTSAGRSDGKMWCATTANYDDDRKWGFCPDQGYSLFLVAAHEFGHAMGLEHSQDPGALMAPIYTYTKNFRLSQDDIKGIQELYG
Experimental: The tested MMP enzymes were prepared more specifically in the laboratories of the applicants, with the exception of MMP-1. MMP-1 from human rheumatoid synovial fibroblasts was purchased from Calbiochem-Novabiochem Corporation, LaJolla. Preparation of the recombinant catalytic domain of human Gelatinase A (cdMMP-2): The catalytic domain of Pro-Gelatinase A was prepared using an E. coli expression system according to the method described by Kröger et al^[19]. The proenzyme was activated with 0.5 mM APMA at 37°C prior to use in the assay. […] Preparation of PMNL-Gelatinase (MMP-9): Latent PMNL-pro-Gelatinase was prepared from human plasma buffy coat as described by Tschesche et al^[21]. PMNL-pro-Gelatinase was activated prior to use by incubation with Trypsin at 37°C for 10 min. Inactivation of Trypsin was accomplished with TKI. […] The overexpressed protein was isolated as inclusion bodies and the renatured protein was purified by affinity chromatography with a hydroxamate inhibitor coupled column as described^[22]. Preparation of the recombinant catalytic domain of human Collagenase-3 (cdMMP-13): Human pro-cdMMP-13 was prepared using an E. coli expression system according to the method described^[23]. The isolated pro-cdMMP-13 was activated prior to use by incubation with 5 mM HgCl2 for 2 h at 37°C.
The enzymatic activity was measured using a modified version of a resonance energy transfer fluorogenic assay as described^[26]. Progress curves were monitored by following the increase in fluorescence at 393 nm (λex = 328 nm), induced by the cleavage of the (7-methoxycoumarin-4-yl)acetyl-Pro-Leu-Gly-Leu-(3-[2,4-dinitro-phenyl]-L-2,3-diamino-propionyl)-Ala-Arg-NH2 (Mca-Pro-Leu-Gly-Leu-Dpa-Ala-Arg-NH2) fluorogenic substrate by MMPs. The fluorescent MCA-group is quenched by resonance energy transfer to the 2,4-dinitrophenyl group. Matrix metalloproteinases cleave this substrate at the Gly-Leu bond. Cleavage results in the loss of energy transfer and a large increase in fluorescence of the MCA group. This substrate is commercially available from Bachem, Switzerland.
Enzyme inhibition assays were carried out in MRB which consisted of 50 mM HEPES/NaOH, pH 7.0, 10 mM CaCl2 and 0,02% (w/v) PEG 8000 at 25°C. MMP microfluorometric profiling assay was done in white U-bottomed 96-well plates (Microfluor 1 White, Dynex, USA) with a final substrate concentration of 6 µM MCA-peptide, approximately 0.3 to 5 nM MMP with variable inhibitor concentrations and 2% DMSO vehicle. From a 1.5 mM stock (100% DMSO) the inhibitors were serially diluted with MRB to 15, 10, 5, 3, 1, 0.6, 0.3, 0.1, 0.05, 0.01 and 0.005 µM final assay concentration. Column 1, rows A through H, contained only DMSO for the "enzyme-only" wells in the assay. After preincubation for 30 min at 25°C the reaction was started by addition of substrate and the plate was read on a SpectraFluor Plus (Tecan, Germany) plate reader with excitation at 330 nm and emission at 405 nm with the gain set to 150. Each measurement was done in triplicate to ensure statistically significant results. The experiment was further controlled for background fluorescence of the substrate, for fluorescence of fully cleaved substrate and for fluorescence quenching or augmentation from solutions containing the test compounds.
Datapoints from eight different MMPs generated on the SpectraFluor Plus were directly visualized on a master Excel spreadsheet. The response of inhibition was determinated for each inhibitor concentration by comparing the amount of hydrolysis (fluorescence units generated over 30 minutes of hydrolysis) of wells containing compound with the "enzyme-only" wells in column 1. With the program GraFit (Erithacus Software Limited) a 4 parameter logistic fit to the dose-response data was used to calculate IC50 values for each compound.

ΔTM-MMP-14 = target: T1, ΔTM-MMP-14 (Homo sapiens, UniProt P50281); assay: as above; assay type: biochemical
T1 construct: The ectodomain of MMP-14 was expressed in Pichia Pastoris; made in house; host or cells: Pichia pastoris

| IC50 (cdMMP-2; read-out: cdMMP-2 IC50) [nM] | IC50 (ΔTM-MMP-14) [nM] | SMILES | further results |
| --- | --- | --- | --- |
| 353 | 610 | C[C@@H](NS(=O)(=O)c1ccccc1)C(=O)NC1=NN=C(c2ccc(C#N)cc2)CS1 [Example 1, (2R)-N-[5-(4-Cyanophenyl)-6H-1,3,4-thiadiazine-2-yl]-2-[(phenylsulfonyl)amino]-propanamide] |  |
| 1410 | 593 | CC(C)[C@@H](NS(=O)(=O)c1ccccc1)C(=O)NC1=NN=C(c2ccc(Cl)cc2)CS1 [Example 2, (2R)-N-[5-(4-Chlorophenyl)-6H-1,3,4-thiadiazin-2-yl]-3-methyl-2-[(phenylsulfonyl)amino]butanamide] |  |
| 390 | 709 | C[C@H](NS(=O)(=O)c1ccccc1)C(=O)NC1=NN=C(c2ccc(C#N)cc2)CS1 [Example 3, (2S)-N-[5-(4-Cyanophenyl)-6H-1,3,4-thiadiazin-2-yl]-2-[(phenylsulfonyl)amino]-propanamide] |  |
| 455 |  | C[C@H](NS(=O)(=O)c1ccccc1)C(=O)NC1=NN=C(c2ccc(Br)cc2)CS1 [Example 6, (2S)-N-[5-(4-Bromophenyl)-6H-1,3,4-thiadiazin-2-yl]-2-[(phenylsulfonyl)amino]-propanamide] |  |
| 495 |  | C[C@H](NS(=O)(=O)c1ccccc1)C(=O)NC1=NN=C(c2ccc([N+](=O)[O-])cc2)CS1 [Example 9, (2S)-N-[5-(4-Nitrophenyl)-6H-1,3,4-thiadiazin-2-yl]-2-[(phenylsulfonyl)amino]-propanamide] |  |
| 3100 | 357 | C[C@H](NS(=O)(=O)c1ccccc1)C(=O)NC1=NN=C(c2ccc(Cl)s2)CS1 [Example 10, (2S)-N-[5-(5-Chloro-2-thienyl)-6H-1,3,4-thiadiazin-2-yl]-2-[(phenylsulfonyl)-amino]propanamide] |  |
| 572 | 596 | C[C@@H](NS(=O)(=O)c1ccccc1)C(=O)NC1=NN=C(c2ccc(F)cc2)CS1 [Example 14, (2R)-N-[5-(4-Fluorophenyl)-6H-1,3,4-thiadiazin-2-yl]-2-[(phenylsulfonyl)amino]-propanamide] |  |
| 3930 |  | COc1ccc(S(=O)(=O)NCC(=O)NC2=NN=C(c3c(F)c(F)c(F)c(F)c3F)CS2)cc1 [Example 16, 2-{[(4-Methoxyphenyl)sulfonyl]amino}-N-[5-(2,3,4,5,6-pentafluorophenyl)-6H-1,3,4-thiadiazin-2-yl]acetamide] |  |
| 675 |  | COc1ccc(S(=O)(=O)N[C@@H](C)C(=O)NC2=NN=C(c3ccc(C)cc3)CS2)cc1 [Example 17, (2S)-2-{[(4-Methoxyphenyl)sulfonyl]amino}-N-[5-(4-methylphenyl)-6H-1,3,4-thiadiazin-2-yl]propanamide] |  |
| 2430 | 887 | CC(C)(C)c1ccc(S(=O)(=O)NCC(=O)NC2=NN=C(c3ccc(Cl)cc3Cl)CS2)cc1 [Example 18, 2-{[(4-tert-Butylphenyl)sulfonyl]amino}-N-[5-(2,4-dichlorophenyl)-6H-1,3,4-thiadiazin-2-yl]acetamide] |  |
| 1520 |  | COc1ccc(S(=O)(=O)NCC(=O)NC2=NN=C(c3ccc(Cl)cc3Cl)CS2)cc1 [Example 19, N-[5-(2,4-Dichlorophenyl)-6H-1,3,4-thiadiazin-2-yl]-2-{[(4-methoxyphenyl)-sulfonyl]amino}acetamide] |  |
| 1460 |  | CC(C)[C@H](NS(=O)(=O)c1ccccc1)C(=O)NC1=NN=C(c2ccc(Cl)cc2)CS1 [Example 22, (2S)-N-[5-(4-Chlorophenyl)-6H-1,3,4-thiadiazin-2-yl]-3-methyl-2-[(phenylsulfonyl)amino]butanamide] |  |
|  |  | O=C(CC1NC(=O)NC1=O)NC1=NN=C(c2ccc(Cl)cc2)CS1 (stereo not shown) [Example 23, N-[5-(4-Chlorophenyl)-6H-1,3,4-thiadiazin-2-yl]-2-(2,5-dioxo-4-imidazolidinyl)-acetamide] | percent inhibition (cdMMP-2): 67%^a)@ 15 |
| 864 |  | O=C(CC1NC(=O)NC1=O)NC1=NN=C(c2ccc(Br)cc2)CS1 (stereo not shown) [Example 24, N-[5-(4-Bromophenyl)-6H-1,3,4-thiadiazin-2-yl]-2-(2,5-dioxo-4-imidazolidinyl)-acetamide] |  |
|  |  | O=C(CC1NC(=O)NC1=O)NC1=NN=C(c2ccc(C3CCCCC3)cc2)CS1 (stereo not shown) [Example 25, N-[5-(4-Cyclohexylphenyl)-6H-1,3,4-thiadiazin-2-yl]-2-(2,5-dioxo-4-imidazolidinyl)acetamide] | percent inhibition (cdMMP-2): 53%^a)@ 15 |
| 890 |  | O=C(CC1NC(=O)NC1=O)NC1=NN=C(c2ccc(N3CCCC3)cc2)CS1 (stereo not shown) [Example 26, 2-(2,5-Dioxo-4-imidazolidinyl)-N-{5-[4-(1-pyrrolidinyl)phenyl]-6H-1,3,4-thiadiazin-2-yl}acetamide] | percent inhibition (ΔTM-MMP-14; ΔTM-MMP-14, @ 15 (µM)): 63%^a)@ 15 |
|  |  | C[C@H](NS(=O)(=O)N1CCOCC1)C(=O)NC1=NN=C(c2ccc(Cl)cc2)CS1 [Example 28, (2S)-N-[5-(4-Chlorophenyl)-6H-1,3,4-thiadiazin-2yl-]-2-[(4-morpholinylsulfonyl)amino]propanamide] | IC50 (cdMMP-2): 662 nM |
| 354 | 430 | C[C@H](NS(=O)(=O)c1cccnc1)C(=O)NC1=NN=C(c2ccc(Cl)cc2)CS1 [Example 29, (2S)-N-[5-(4-Chlorophenyl)-6H-1,3,4-thiadiazin-2-yl]-2-[(3-pyridylsulfonyl)-amino]propanamide] |  |
| 693 | 692 | O=C1C[C@@H](C(=O)NC2=NN=C(c3ccc(Cl)cc3)CS2)NC(=O)N1 [Example 30, (4S)-N-[5-(4-Chlorophenyl)-6H-1,3,4-thiadiazin-2-yl]-2,6-dioxohexahydro-4-pyrimidinecarboxamide] |  |
|  |  | C=CCNC1=NN=C(c2ccc(Cl)cc2)CS1 [Example 31, N-Allyl-5-(4-chlorophenyl)-6H-1,3,4-thiadiazin-2-amine hydrobromide] | IC50 (cdMMP-2): 3310 nM |

| SMILES | IC50 (cdMMP-2; read-out: cdMMP-2 IC50) [nM] | IC50 (ΔTM-MMP-14) [nM] | further results |
| --- | --- | --- | --- |
| C[C@H](NS(=O)(=O)c1ccccc1)C(=O)NC1=NN=C(c2ccc(C(F)(F)F)cc2)CS1 [Example 4, (2S)-2-[(Phenylsulfonyl)amino]-N-{5-[4-(trifluormethyl)phenyl]-6H-1,3,4-thiadiazin-2-yl}propanamide] |  | 708 | percent inhibition (cdMMP-2): 25%^a)@ 15 |
